Measured values: patent US11517018B2, “Herbicidal composition comprising cinmethylin and saflufenacil” (BASF Agro B.V., priority 2015, dated 2022)
Where “and” joins values, the source holds several entries; their conditions need not be identical. Equal values may be shown once.

What was measured:
Format in all cases: in vivo
Details in all cases: 20 DAT
Abutilon theophrasti = experiment: Greenhouse preemergence herbicidal activity, ABUTH
Experimental: (§1) The test plants have been seeded, separately for each species, in plastic containers in sandy loamy soil containing 5% of organic matter.
(§2) The containers were irrigated gently to promote germination and growth and subsequently covered with transparent plastic hoods until the plants had rooted.
(§3) The plants have been cultivated due to their individual requirements at 10-25° C. and 20-35° C. The plants were irrigated due to their necessity.
(§4) In the following experiments, the herbicidal activity for the individual herbicidal compositions (solo and mixture applications) was assessed 20 days after treatment (DAT).
(§5) The evaluation for the damage on undesired weeds caused by the chemical compositions was carried out using a scale from 0 to 100%, compared to the untreated control plants. Here, 0 means no damage and 100 means complete destruction of the plants.
(§6) E=X+Y−(X·Y/100) where • X=effect in percent using herbicide A at an application rate a; • Y=effect in percent using herbicide B at application rate b; • E=expected effect (in %) of herbicide A+herbicide B at application rates a+b.
(§7) The value E corresponds to the effect (plant damage or injury) which is to be expected if the activity of the individual compounds is additive. If the observed effect is higher than the value E calculated according to the Colby equation, a synergistic effect is present.

Alopecurus myosuroides = experiment: Greenhouse preemergence herbicidal activity, ALOMY
Experimental: as §1, §2, §3, §4, §5, §6, §7

Avena fatua [1] = experiment: Greenhouse preemergence herbicidal activity, AVEFA
Experimental: as §1, §2, §3, §4, §5, §6, §7

Lolium multiflorum [2] = experiment: Greenhouse preemergence herbicidal activity, LOLMU
Experimental: as §1, §2, §3, §4, §5, §6, §7

Chenopodium album = experiment: Greenhouse preemergence herbicidal activity, CHEAL
Experimental: as §1, §2, §3, §4, §5, §6, §7

Galium aparine = experiment: Greenhouse preemergence herbicidal activity, GALAP
Experimental: as §1, §2, §3, §4, §5, §6, §7

Geranium dissectum = experiment: Greenhouse preemergence herbicidal activity, GERDI
Experimental: as §1, §2, §3, §4, §5, §6, §7

Papaver rhoeas = experiment: Greenhouse preemergence herbicidal activity, PAPRH
Experimental: as §1, §2, §3, §4, §5, §6, §7

Polygonum convolvulus = experiment: Greenhouse preemergence herbicidal activity, POLCO
Experimental: as §1, §2, §3, §4, §5, §6, §7

Setaria viridis = experiment: Greenhouse preemergence herbicidal activity, SETVI
Experimental: as §1, §2, §3, §4, §5, §6, §7

Sorghum halepense [3] = experiment: Greenhouse preemergence herbicidal activity, SORHA
Experimental: as §1, §2, §3, §4, §5, §6, §7

Stellaria media [4] = experiment: Greenhouse preemergence herbicidal activity, STEME
Experimental: as §1, §2, §3, §4, §5, §6, §7

Avena fatua [5] = experiment: Greenhouse postemergence herbicidal activity, AVEFA
Experimental: as §1
(§8) For the post emergence treatment, the plants were first grown to the 2 leaf station (GS 12). Here, the herbicidal compositions were suspended or emulsified in water as distribution medium and sprayed using finely distributing nozzels.
as §3, §4, §5, §6, §7

Digitaria sanguinalis = experiment: Greenhouse postemergence herbicidal activity, DIGSA
Experimental: as §1, §8, §3, §4, §5, §6, §7

Lolium multiflorum [6] = experiment: Greenhouse postemergence herbicidal activity, LOLMU
Experimental: as §1, §8, §3, §4, §5, §6, §7

Sorghum halepense [7] = experiment: Greenhouse postemergence herbicidal activity, SORHA
Experimental: as §1, §8, §3, §4
The evaluation for the damage on undesired weeds caused by the chemical compositions was carried out using a scale from 0 to 100%, compared to the untreated control plants. Here, 0 means no damage and 100 means complete destruction of the plants. […]
as §7

Stellaria media [8] = experiment: Greenhouse postemergence herbicidal activity, STEME
Experimental: as §1, §8, §3, §4, §5, §6, §7

[9] = saflufenacil solo 0.625 g ai/ha

Work on Cc1ccccc1CO[C@@H]1C[C@@]2(C(C)C)CC[C@@]1(C)O2 (racemic) [herbicide A, (±)-2-exo-(2-Methylbenzyloxy)-1-methyl-4-isopropyl-7-oxabicyclo[2.2.1]heptane] yielded a herbicidal activity (Abutilon theophrasti; herbicide A solo 31.25 g ai/ha) of 35%, a herbicidal activity (Abutilon theophrasti; herbicide A solo 50 g ai/ha) of 0% and a herbicidal activity (Abutilon theophrasti; herbicide A solo 62.5 g ai/ha) of 40%. The herbicidal activity (Abutilon theophrasti; herbicide A solo 100 g ai/ha) was 0%, the herbicidal activity (Alopecurus myosuroides; herbicide A solo 31.25 g ai/ha) was 95% and the herbicidal activity (Alopecurus myosuroides; herbicide A solo 62.5 g ai/ha) was 95% and 98%. It also gave a herbicidal activity (Avena fatua [1]; herbicide A solo 31.25 g ai/ha) of 30%, a herbicidal activity (Avena fatua [1]; herbicide A solo 50 g ai/ha) of 0% and a herbicidal activity (Avena fatua [1]; herbicide A solo 100 g ai/ha) of 20%. For the same molecule, the herbicidal activity (Avena fatua [1]; herbicide A solo 125 g ai/ha) was 35%, the herbicidal activity (Avena fatua [1]; herbicide A solo 200 g ai/ha) was 50% and the herbicidal activity (Avena fatua [1]; herbicide A solo 250 g ai/ha) was 60% and 70%. The herbicidal activity (Avena fatua [1]; herbicide A solo 500 g ai/ha) was 80%, the herbicidal activity (Lolium multiflorum [2]; herbicide A solo 25 g ai/ha) was 50% and the herbicidal activity (Lolium multiflorum [2]; herbicide A solo 62.5 g ai/ha) was 30%. For the same molecule, the herbicidal activity (Lolium multiflorum [2]; herbicide A solo 100 g ai/ha) was 95%, the herbicidal activity (Lolium multiflorum [2]; herbicide A solo 125 g ai/ha) was 85% and the herbicidal activity (Lolium multiflorum [2]; herbicide A solo 200 g ai/ha) was 98%. For the same molecule, the herbicidal activity (Lolium multiflorum [2]; herbicide A solo 250 g ai/ha) was 98%, the herbicidal activity (Lolium multiflorum [2]; herbicide A solo 500 g ai/ha) was 95% and the herbicidal activity (Chenopodium album; CHEAI, herbicide A solo 62.5 g ai/ha) was 40%. The herbicidal activity (Chenopodium album; CHEAL, herbicide A solo 125 g ai/ha) was 95%, the herbicidal activity (Chenopodium album; CHEAL, herbicide A solo 500 g ai/ha) was 85% and the herbicidal activity (Galium aparine; herbicide A solo 25 g ai/ha) was 0%. For the same molecule, the herbicidal activity (Galium aparine; herbicide A solo 50 g ai/ha) was 0%, the herbicidal activity (Galium aparine; herbicide A solo 125 g ai/ha) was 65% and the herbicidal activity (Galium aparine; herbicide A solo 200 g ai/ha) was 30%. For the same molecule, the herbicidal activity (Geranium dissectum; herbicide A solo 25 g ai/ha) was 50%, the herbicidal activity (Geranium dissectum; herbicide A solo 125 g ai/ha) was 80% and the herbicidal activity (Papaver rhoeas; herbicide A solo 25 g ai/ha) was 0%. The herbicidal activity (Papaver rhoeas; herbicide A solo 31.25 g ai/ha) was 65%, the herbicidal activity (Papaver rhoeas; herbicide A solo 50 g ai/ha) was 0% and the herbicidal activity (Polygonum convolvulus; herbicide A solo 25 g ai/ha) was 0%. For the same molecule, the herbicidal activity (Polygonum convolvulus; herbicide A solo 50 g ai/ha) was 0%, the herbicidal activity (Polygonum convolvulus; herbicide A solo 62.5 g ai/ha) was 0% and the herbicidal activity (Setaria viridis; herbicide A solo 31.25 g ai/ha) was 95%. It also gave a herbicidal activity (Setaria viridis; herbicide A solo 62.5 g ai/ha) of 90%, a herbicidal activity (Setaria viridis; herbicide A solo 125 g ai/ha) of 95% and a herbicidal activity (Setaria viridis; herbicide A solo 250 g ai/ha) of 98%. It also gave a herbicidal activity (Sorghum halepense [3]; herbicide A solo 50 g ai/ha) of 95%, a herbicidal activity (Sorghum halepense [3]; herbicide A solo 100 g ai/ha) of 98% and a herbicidal activity (Sorghum halepense [3]; herbicide A solo 200 g ai/ha) of 98%. It also gave a herbicidal activity (Stellaria media [4]; herbicide A solo 31.25 g ai/ha) of 40%, a herbicidal activity (Stellaria media [4]; herbicide A solo 50 g ai/ha) of 20% and a herbicidal activity (Avena fatua [5]; herbicide A solo 43.8 g ai/ha) of 25%. For the same molecule, the herbicidal activity (Avena fatua [5]; herbicide A solo 87.5 g ai/ha) was 30%, the herbicidal activity (Avena fatua [5]; herbicide A solo 350 g ai/ha) was 70% and the herbicidal activity (Digitaria sanguinalis; herbicide A solo 87.5 g ai/ha) was 65%. For the same molecule, the herbicidal activity (Digitaria sanguinalis; herbicide A solo 125 g ai/ha) was 85%, the herbicidal activity (Lolium multiflorum [6]; herbicide A solo 43.8 g ai/ha) was 0% and the herbicidal activity (Lolium multiflorum [6]; herbicide A solo 62.5 g ai/ha) was 0%. It also gave a herbicidal activity (Lolium multiflorum [6]; herbicide A solo 87.5 g ai/ha) of 0%, a herbicidal activity (Lolium multiflorum [6]; herbicide A solo 125 g ai/ha) of 0% and a herbicidal activity (Lolium multiflorum [6]; herbicide A solo 350 g ai/ha) of 75%. It also gave a herbicidal activity (Sorghum halepense [7]; herbicide A solo 350 g ai/ha) of 70%, a herbicidal activity (Stellaria media [8]; herbicide A solo 43.8 g ai/ha) of 0% and a herbicidal activity (Stellaria media [8]; herbicide A solo 62.5 g ai/ha) of 25%.
Work on CC(C)N(C)S(=O)(=O)NC(=O)c1cc(-n2c(=O)cc(C(F)(F)F)n(C)c2=O)c(F)cc1Cl [saflufenacil, N′-{2-chloro-4-fluoro-5-[1,2,3,6-tetrahydro-3-methyl-2,6-dioxo-4-(trifluoromethyl)pyrimidin-1-yl]benzoyl}-N-isopropyl-N-methylsulfamide] yielded a herbicidal activity (Abutilon theophrasti; saflufenacil solo 4.4 g ai/ha) of 65%, a herbicidal activity (Abutilon theophrasti; saflufenacil solo 6.25 g ai/ha) of 98% and a herbicidal activity (Abutilon theophrasti; saflufenacil solo 8.8 g ai/ha) of 85%. It also gave a herbicidal activity (Abutilon theophrasti; saflufenacil solo 12.5 g ai/ha) of 98%, a herbicidal activity (Alopecurus myosuroides; saflufenacil solo 4.4 g ai/ha) of 0% and a herbicidal activity (Alopecurus myosuroides; saflufenacil solo 8.8 g ai/ha) of 0%. It also gave a herbicidal activity (Alopecurus myosuroides; saflufenacil solo 25 g ai/ha) of 0%, a herbicidal activity (Avena fatua [1]; saflufenacil solo 4.4 g ai/ha) of 0% and a herbicidal activity (Avena fatua [1]; saflufenacil solo 6.25 g ai/ha) of 0%. For the same molecule, the herbicidal activity (Avena fatua [1]; saflufenacil solo 8.8 g ai/ha) was 0%, the herbicidal activity (Avena fatua [1]; saflufenacil solo 12.5 g ai/ha) was 0% and the herbicidal activity (Avena fatua [1]; saflufenacil solo 35 g ai/ha) was 20%. The herbicidal activity (Avena fatua [1]; saflufenacil solo 50 g ai/ha) was 0%, the herbicidal activity (Lolium multiflorum [2]; saflufenacil solo 3.13 g ai/ha) was 0% and the herbicidal activity (Lolium multiflorum [2]; saflufenacil solo 12.5 g ai/ha) was 0%. It also gave a herbicidal activity (Chenopodium album; CHEAI, saflufenacil solo 25 g ai/ha) of 90%, a herbicidal activity (Chenopodium album; CHEAL, saflufenacil solo 25 g ai/ha) of 90% and a herbicidal activity (Galium aparine; saflufenacil solo 3.13 g ai/ha) of 0%. The herbicidal activity (Galium aparine; saflufenacil solo 6.25 g ai/ha) was 20%, the herbicidal activity (Galium aparine; saflufenacil solo 17.5 g ai/ha) was 95% and the herbicidal activity (Galium aparine; saflufenacil solo 25 g ai/ha) was 98%. The herbicidal activity (Geranium dissectum; saflufenacil solo 3.13 g ai/ha) was 20%, the herbicidal activity (Geranium dissectum; saflufenacil solo 17.5 g ai/ha) was 80% and the herbicidal activity (Papaver rhoeas; saflufenacil solo 3.13 g ai/ha) was 95%. For the same molecule, the herbicidal activity (Papaver rhoeas; saflufenacil solo 4.4 g ai/ha) was 85%, the herbicidal activity (Papaver rhoeas; saflufenacil solo 6.25 g ai/ha) was 90% and the herbicidal activity (Polygonum convolvulus; saflufenacil solo 3.13 g ai/ha) was 20%. It also gave a herbicidal activity (Polygonum convolvulus; saflufenacil solo 6.25 g ai/ha) of 98%, a herbicidal activity (Polygonum convolvulus; saflufenacil solo 8.8 g ai/ha) of 90% and a herbicidal activity (Setaria viridis; saflufenacil solo 4.4 g ai/ha) of 0%. For the same molecule, the herbicidal activity (Setaria viridis; saflufenacil solo 25 g ai/ha) was 60%, the herbicidal activity (Setaria viridis; saflufenacil solo 50 g ai/ha) was 65% and the herbicidal activity (Sorghum halepense [3]; saflufenacil solo 6.25 g ai/ha) was 0%. The herbicidal activity (Sorghum halepense [3]; saflufenacil solo 12.5 g ai/ha) was 10%, the herbicidal activity (Sorghum halepense [3]; saflufenacil solo 25 g ai/ha) was 30% and the herbicidal activity (Stellaria media [4]; saflufenacil solo 4.4 g ai/ha) was 90%. It also gave a herbicidal activity (Stellaria media [4]; saflufenacil solo 6.25 g ai/ha) of 95%, a herbicidal activity (Avena fatua [5]; [9]) of 0% and a herbicidal activity (Avena fatua [5]; saflufenacil solo 1.25 g ai/ha) of 0%. It also gave a herbicidal activity (Avena fatua [5]; saflufenacil solo 5 g ai/ha) of 0%, a herbicidal activity (Digitaria sanguinalis; saflufenacil solo 1.25 g ai/ha) of 75% and a herbicidal activity (Lolium multiflorum [6]; [9]) of 0%. It also gave a herbicidal activity (Lolium multiflorum [6]; saflufenacil solo 1.25 g ai/ha) of 0%, a herbicidal activity (Lolium multiflorum [6]; saflufenacil solo 5 g ai/ha) of 50% and a herbicidal activity (Sorghum halepense [7]; saflufenacil solo 5 g ai/ha) of 65%. The herbicidal activity (Stellaria media [8]; [9]) was 85%.
